The subject of the assay is Human primary melanocytes. Nature of the assay: Melanin production by human melanocytes irradiated with 20 mJ/cm^2 UVB 2 times, treated with test substances for 2 weeks (Test Example 3). The assay is classed as cell-based. The protocol:
Human primary melanocytes (Life Technologies, CA, USA) were cultured in M-254 medium (Gibco BRL, NY, USA) supplemented with human melanocyte growth supplement (HMGS; Gibco BRL, NY, USA) under the condition of 37° C. and 5% CO2. After plating the cells on a 100-mm culture dish with 2×10^5 cells per dish and waiting overnight, 20 mJ/cm^2 UVB was radiated 2 times with a 24-hour interval. Then, the cells were cultured for 2 weeks while replacing the medium with one containing the ginseng-derived exosome-like vesicles obtained in Example 1 at concentrations of 0.1 μg/mL, 1 μg/m L, 5 μg/mL or 10 μg/mL once in 4 days. For comparison, positive control groups were treated with 30 μM Melasolv, 1 μM compound K or 2 ppm fermented saponin for 2 weeks in the same manner and melanin production was measured. As negative control groups, melanocytes not treated with UVB and melanocytes treated with UVB but not treated with the test substances were cultured in the same manner. 2 weeks later, the cells were detached from the culture dish and counted. The cells of the same number were collected into a microtube, lysed with a RIPA lysis buffer (Millipore, 20-188) and then centrifuged at 13,500 rpm for 30 minutes. The precipitating pellets were dissolved in 1 N NaOH and photographed for comparison of color. Melanin contents were compared by measuring absorbance at 450 nm.

Consider `CC(C)=CCC[C@](C)(O[C@@H]1O[C@H](CO)[C@@H](O)[C@H](O)[C@H]1O)[C@H]1CC[C@]2(C)[C@@H]1[C@H](O)C[C@@H]1[C@@]3(C)CC[C@H](O)C(C)(C)[C@@H]3CC[C@]12C` [Comp. K, compound K], for which the “Decrease (%) in melanin contents” value (1 μM) was 28.3%.
In the case of `COc1cc(/C=C/C(=O)Oc2cc(C)ccc2C(C)C)cc(OC)c1OC` [Melasolv], the “Decrease (%) in melanin contents” value (30 μM) amounted to 54.0%.

(Values after patent publication US10610467B2, “Lightening composition comprising ginseng-derived exosome-like vesicles” (AMOREPACIFIC CORPORATION, priority 2015, dated 2020).)
